Data from patent US11952586B2, “B-cell cultivation method” (Hoffmann-La Roche Inc., priority 2017, dated 2024).

Assays:
single deposited B-cells = experiment: co-cultivation of single deposited B-cells with EL-4 B5 feeder cells; IgG in supernatant by ELISA; assay type: cell-based, rabbit; details: for average productivity/plate, IgG+ wells / frequency/plate rbIgG+: non-immunized animal
Procedure: Single cell sorted B-cells were cultured in 96-well plates with 200 μl/well EL-4 B5 medium with Pansorbin Cells (SAC) (Calbiochem (Merck), Darmstadt, Deutschland), EL-4 B5 cells (0-5×10^4/well) and rabbit thymocyte supernatant or cytokine mix, respectively, for 7 days at 37° C. in an atmosphere of 5% CO2 in the incubator. B-cell culture supernatants were removed for screening and the cells harvested immediately for variable region gene cloning or frozen at −80° C. in 100 μl RLT buffer (Qiagen, Hilden, Germany).
A mixture of 0.5 μg/ml of biotinylated mouse anti-rabbit IgG antibody (Sigma-Aldrich) and 0.35 μg/ml anti-rabbit IgG HRP conjugate (Sigma-Aldrich) was transferred to 384 well streptavidin coated microtiter plates (MicroCoat Biotechnologie GmbH). Dilutions of B-cell supernatants in PBS supplemented with 0.5% BSA and 0.05% Tween®-20 were added and incubated for 90 min at RT. After repeated washing (6×) with PBST (phosphate buffered saline with 0.2% Tween buffer the plates were developed with BM Blue® HRP substrate solution and color formation was measured by absorbance at 370 nm. A commercial rabbit IgG (Sigma-Aldrich) was used as a calibration standard.

EL-4 B5 cells = experiment: vitality of irradiated EL-4 B5 cells in presence of PMA; assay type: cell-based, murine
From the text: Different PMA concentrations in combination with single deposited cells of a non-immunized animal have been tested.

[1] = PMA 0.048 ng/ml, 3 Gy, 15k/Well
[2] = PMA 0.048 ng/ml, 4 Gy, 20k/Well
[3] = PMA 0.048 ng/ml, 5 Gy, 20k/Well
[4] = PMA 0.048 ng/ml, 8 Gy, 20k/Well
[5] = PMA 0.048 ng/ml, 50 Gy, 50k/Well
[6] = PMA 0.109 ng/ml, 3 Gy, 15k/Well
[7] = PMA 0.109 ng/ml, 4 Gy, 20k/Well
[8] = PMA 0.109 ng/ml, 5 Gy, 20k/Well
[9] = PMA 0.109 ng/ml, 8 Gy, 20k/Well
[10] = PMA 0.109 ng/ml, 50 Gy, 50k/Well
[11] = PMA 0.25 ng/ml, 50 Gy, 50k/Well
[12] = PMA 0.57 ng/ml, 50 Gy, 50k/Well
[13] = PMA 1.3 ng/ml, 3 Gy, 15k/Well, HSA immunized rabbit
[14] = c(PMA) 0.015 ng/ml, 4 Gy EL-4 B5
[15] = c(PMA) 0.03 ng/ml, 4 Gy EL-4 B5
[16] = c(PMA) 0.03 ng/ml, 50 Gy EL-4 B5
[17] = c(PMA) 0.06 ng/ml, 4 Gy EL-4 B5
[18] = c(PMA) 0.125 ng/ml, 4 Gy EL-4 B5
[19] = c(PMA) 0.25 ng/ml, 4 Gy EL-4 B5
[20] = c(PMA) 0.25 ng/ml, 50 Gy EL-4 B5
[21] = c(PMA) 1.3 ng/ml, 50 Gy EL-4 B5

## CCCCCCCCCCCCCC(=O)O[C@@H]1[C@@H](C)[C@@]2(O)[C@@H](C=C(CO)C[C@]3(O)C(=O)C(C)=C[C@@H]23)[C@@H]2C(C)(C)[C@]12OC(C)=O [PMA, phorbol-12-myristate-13-acetate]
Single deposited B-cells; 4 Gy irradiated EL-4 B5 cells, 0.015 ng/ml to 1.3 ng/ml PMA
  influence of PMA concentration on frequency of IgG positive wells or productivity: no influence
Single deposited B-cells; 50 Gy irradiated EL-4 B5 cells
  effect of the addition of PMA on frequency and productivity: concentration dependent effect
Single deposited B-cells; [1]
  Average IgG Productivity of all IgG+ wells: 1.405 µg/mL
  IgG+ Frequency: 48.8 % total wells
Single deposited B-cells; [2]
  Average IgG Productivity of all IgG+ wells: 5.465 µg/mL
  IgG+ Frequency: 73.8 % total wells
Single deposited B-cells; [3]
  Average IgG Productivity of all IgG+ wells: 5.769 µg/mL
  IgG+ Frequency: 71.4 % total wells
Single deposited B-cells; [4]
  Average IgG Productivity of all IgG+ wells: 5.739 µg/mL
  IgG+ Frequency: 84.5 % total wells
Single deposited B-cells; [5]
  Average IgG Productivity of all IgG+ wells: 2.821 µg/mL
  IgG+ Frequency: 14.3 % total wells
Single deposited B-cells; PMA 0.08 ng/ml, 0.031x CM, 5,000 non-irradiated EL-4 B5 cells per well
  frequency per plate of rbIgG-positive wells: 39.3 % total
Single deposited B-cells; PMA 0.08 ng/ml, 0.1x CM, 5,000 non-irradiated EL-4 B5 cells per well
  frequency per plate of rbIgG-positive wells: 44.0 % total
Single deposited B-cells; PMA 0.08 ng/ml, 0.31x CM, 5,000 non-irradiated EL-4 B5 cells per well
  frequency per plate of rbIgG-positive wells: 51.2 % total
Single deposited B-cells; PMA 0.08 ng/ml, 1x CM, 5,000 non-irradiated EL-4 B5 cells per well
  frequency per plate of rbIgG-positive wells: 65.5 % total
Single deposited B-cells; PMA 0.08 ng/ml, 2x CM, 5,000 non-irradiated EL-4 B5 cells per well
  frequency per plate of rbIgG-positive wells: 65.5 % total
Single deposited B-cells; [6]
  Average IgG Productivity of all IgG+ wells: 2.932 µg/mL
  IgG+ Frequency: 47.6 % total wells
Single deposited B-cells; [7]
  Average IgG Productivity of all IgG+ wells: 5.772 µg/mL
  IgG+ Frequency: 76.2 % total wells
Single deposited B-cells; [8]
  Average IgG Productivity of all IgG+ wells: 5.335 µg/mL
  IgG+ Frequency: 83.3 % total wells
Single deposited B-cells; [9]
  Average IgG Productivity of all IgG+ wells: 5.614 µg/mL
  IgG+ Frequency: 77.4 % total wells
Single deposited B-cells; [10]
  Average IgG Productivity of all IgG+ wells: 1.942 µg/mL
  IgG+ Frequency: 16.7 % total wells
Single deposited B-cells; PMA 0.14 ng/ml, 0.031x CM, 5,000 non-irradiated EL-4 B5 cells per well
  frequency per plate of rbIgG-positive wells: 35.7 % total
Single deposited B-cells; PMA 0.14 ng/ml, 0.1x CM, 5,000 non-irradiated EL-4 B5 cells per well
  frequency per plate of rbIgG-positive wells: 52.4 % total
Single deposited B-cells; PMA 0.14 ng/ml, 0.31x CM, 5,000 non-irradiated EL-4 B5 cells per well
  frequency per plate of rbIgG-positive wells: 54.8 % total
Single deposited B-cells; PMA 0.14 ng/ml, 1x CM, 5,000 non-irradiated EL-4 B5 cells per well
  frequency per plate of rbIgG-positive wells: 69.0 % total
Single deposited B-cells; PMA 0.14 ng/ml, 2x CM, 5,000 non-irradiated EL-4 B5 cells per well
  frequency per plate of rbIgG-positive wells: 54.8 % total
Single deposited B-cells; PMA 0.25 ng/ml, 0.031x CM, 5,000 non-irradiated EL-4 B5 cells per well
  frequency per plate of rbIgG-positive wells: 53.6 % total
Single deposited B-cells; PMA 0.25 ng/ml, 0.1x CM, 5,000 non-irradiated EL-4 B5 cells per well
  frequency per plate of rbIgG-positive wells: 54.8 % total
Single deposited B-cells; PMA 0.25 ng/ml, 0.31x CM, 5,000 non-irradiated EL-4 B5 cells per well
  frequency per plate of rbIgG-positive wells: 73.8 % total
Single deposited B-cells; PMA 0.25 ng/ml, 1x CM, 5,000 non-irradiated EL-4 B5 cells per well
  frequency per plate of rbIgG-positive wells: 65.5 % total
Single deposited B-cells; PMA 0.25 ng/ml, 2x CM, 5,000 non-irradiated EL-4 B5 cells per well
  frequency per plate of rbIgG-positive wells: 48.8 % total
Single deposited B-cells; PMA 0.25 ng/ml, 3 Gy, 15k/Well
  Average IgG Productivity of all IgG+ wells: 3.094 µg/mL
  IgG+ Frequency: 47.6 % total wells
Single deposited B-cells; PMA 0.25 ng/ml, 4 Gy, 20k/Well
  Average IgG Productivity of all IgG+ wells: 4.61 µg/mL
  IgG+ Frequency: 75 % total wells
Single deposited B-cells; PMA 0.25 ng/ml, 5 Gy, 20k/Well
  Average IgG Productivity of all IgG+ wells: 5.313 µg/mL
  IgG+ Frequency: 84.5 % total wells
Single deposited B-cells; PMA 0.25 ng/ml, 8 Gy, 20k/Well
  Average IgG Productivity of all IgG+ wells: 5.945 µg/mL
  IgG+ Frequency: 88.1 % total wells
Single deposited B-cells; [11]
  Average IgG Productivity of all IgG+ wells: 1.893 µg/mL
  IgG+ Frequency: 20.2 % total wells
Single deposited B-cells; PMA 0.43 ng/ml, 0.031x CM, 5,000 non-irradiated EL-4 B5 cells per well
  frequency per plate of rbIgG-positive wells: 67.9 % total
Single deposited B-cells; PMA 0.43 ng/ml, 0.1x CM, 5,000 non-irradiated EL-4 B5 cells per well
  frequency per plate of rbIgG-positive wells: 72.6 % total
Single deposited B-cells; PMA 0.43 ng/ml, 0.31x CM, 5,000 non-irradiated EL-4 B5 cells per well
  frequency per plate of rbIgG-positive wells: 71.4 % total
Single deposited B-cells; PMA 0.43 ng/ml, 1x CM, 5,000 non-irradiated EL-4 B5 cells per well
  frequency per plate of rbIgG-positive wells: 50.0 % total
Single deposited B-cells; PMA 0.43 ng/ml, 2x CM, 5,000 non-irradiated EL-4 B5 cells per well
  frequency per plate of rbIgG-positive wells: 45.2 % total
Single deposited B-cells; PMA 0.57 ng/ml, 3 Gy, 15k/Well
  Average IgG Productivity of all IgG+ wells: 6.067 µg/mL
  IgG+ Frequency: 32.1 % total wells
Single deposited B-cells; PMA 0.57 ng/ml, 4 Gy, 20k/Well
  Average IgG Productivity of all IgG+ wells: 5.834 µg/mL
  IgG+ Frequency: 72.6 % total wells
Single deposited B-cells; PMA 0.57 ng/ml, 5 Gy, 20k/Well
  Average IgG Productivity of all IgG+ wells: 5.269 µg/mL
  IgG+ Frequency: 86.9 % total wells
Single deposited B-cells; PMA 0.57 ng/ml, 8 Gy, 20k/Well
  Average IgG Productivity of all IgG+ wells: 5.72 µg/mL
  IgG+ Frequency: 81 % total wells
Single deposited B-cells; [12]
  Average IgG Productivity of all IgG+ wells: 4.876 µg/mL
  IgG+ Frequency: 84.5 % total wells
Single deposited B-cells; PMA 0.73 ng/ml, 0.031x CM, 5,000 non-irradiated EL-4 B5 cells per well
  frequency per plate of rbIgG-positive wells: 76.2 % total
Single deposited B-cells; PMA 0.73 ng/ml, 0.1x CM, 5,000 non-irradiated EL-4 B5 cells per well
  frequency per plate of rbIgG-positive wells: 75.0 % total
Single deposited B-cells; PMA 0.73 ng/ml, 0.31x CM, 5,000 non-irradiated EL-4 B5 cells per well
  frequency per plate of rbIgG-positive wells: 67.9 % total
Single deposited B-cells; PMA 0.73 ng/ml, 1x CM, 5,000 non-irradiated EL-4 B5 cells per well
  frequency per plate of rbIgG-positive wells: 36.9 % total
Single deposited B-cells; PMA 0.73 ng/ml, 2x CM, 5,000 non-irradiated (0 Gy) EL-4 B5 cells per well
  frequency per plate of rbIgG-positive wells: 48.8 % total
Single deposited B-cells; [13]
  Average IgG Productivity of all IgG+ wells: 4.937 µg/mL
  IgG+ Frequency: 8.3 % total wells
Single deposited B-cells; PMA 1.3 ng/ml, 4 Gy, 20k/Well
  Average IgG Productivity of all IgG+ wells: 5.011 µg/mL
  IgG+ Frequency: 72.6 % total wells
Single deposited B-cells; PMA 1.3 ng/ml, 5 Gy, 20k/Well
  Average IgG Productivity of all IgG+ wells: 4.8 µg/mL
  IgG+ Frequency: 84.5 % total wells
Single deposited B-cells; PMA 1.3 ng/ml, 8 Gy, 20k/Well
  Average IgG Productivity of all IgG+ wells: 5.198 µg/mL
  IgG+ Frequency: 88.1 % total wells
Single deposited B-cells; PMA 1.3 ng/ml, 50 Gy, 50k/Well
  Average IgG Productivity of all IgG+ wells: 5.427 µg/mL
  IgG+ Frequency: 83.3 % total wells
Single deposited B-cells; [14]
  average productivity/plate, IgG+ wells: 3.90 µg/mL
  frequency/plate rbIgG+: 54.0 % total
Single deposited B-cells; [15]
  average productivity/plate, IgG+ wells: 3.90 µg/mL
  frequency/plate rbIgG+: 55.6 % total
Single deposited B-cells; [16]
  average productivity/plate, IgG+ wells: 1.36 µg/mL
  frequency/plate rbIgG+: 52.4 % total
Single deposited B-cells; [17]
  average productivity/plate, IgG+ wells: 3.72 µg/mL
  frequency/plate rbIgG+: 57.5 % total
Single deposited B-cells; [18]
  average productivity/plate, IgG+ wells: 3.78 µg/mL
  frequency/plate rbIgG+: 56.0 % total
Single deposited B-cells; [19]
  average productivity/plate, IgG+ wells: 3.83 µg/mL
  frequency/plate rbIgG+: 64.3 % total
Single deposited B-cells; [20]
  average productivity/plate, IgG+ wells: 2.48 µg/mL
  frequency/plate rbIgG+: 54.4 % total
Single deposited B-cells; c(PMA) 0.5 ng/ml, 4 Gy EL-4 B5
  average productivity/plate, IgG+ wells: 4.06 µg/mL
  frequency/plate rbIgG+: 57.5 % total
Single deposited B-cells; c(PMA) 1.3 ng/ml, 4 Gy EL-4 B5
  average productivity/plate, IgG+ wells: 3.57 µg/mL
  frequency/plate rbIgG+: 56.0 % total
Single deposited B-cells; [21]
  average productivity/plate, IgG+ wells: 3.51 µg/mL
  frequency/plate rbIgG+: 58.7 % total
EL-4 B5 cells; c(PMA) 0.03 ng/ml, 4 Gy
  Vitality: 54.8%
EL-4 B5 cells; c(PMA) 0.03 ng/ml, 50 Gy
  Vitality: 3.9%
EL-4 B5 cells; c(PMA) 0.06 ng/ml, 4 Gy
  Vitality: 45.4%
EL-4 B5 cells; c(PMA) 0.125 ng/ml, 4 Gy
  Vitality: 39.8%
EL-4 B5 cells; c(PMA) 0.25 ng/ml, 4 Gy
  Vitality: 34%
EL-4 B5 cells; c(PMA) 0.25 ng/ml, 50 Gy
  Vitality: 9.5%
EL-4 B5 cells; c(PMA) 0.5 ng/ml, 4 Gy
  Vitality: 32.2%
EL-4 B5 cells; c(PMA) 1.3 ng/ml, 4 Gy
  Vitality: 19.2%
EL-4 B5 cells; c(PMA) 1.3 ng/ml, 50 Gy
  Vitality: 17.4%
